We go through 42 compounds from patent US20250042889A1, “3CLPRO PROTEASE INHIBITOR” (SHANGHAI QILU PHARMACEUTICAL RESEARCH AND DEVELOPMENT …, priority 2021, published 2025).

For the assay, the target named is SARS-COV-2 3CLpro/Mpro protease (Severe acute respiratory syndrome coronavirus 2 (2019-nCoV) (SARS-CoV-2), UniProt P0DTD1). Put plainly: Inhibitory effect on SARS-COV-2 3CLpro/Mpro protease by fluorescence resonance energy transfer. Type of assay: biochemical. Conditions: activity intervals A-D, read-out: IC50 (nM), Inhibition on SARS-CoV-2 3CLpro/Mpro protease.

Consider `CNc1cncc(C(=O)N2C[C@H](Nc3c(C(=O)N4C[C@@H](C)O[C@@H](C)C4)cc(Br)cc3[N+](=O)[O-])C[C@H]2C(=O)NCc2ccccc2)c1` [Example 390], for which the IC50 was 10 to 50 nM. Take `CNc1cncc(C(=O)N2C[C@H](Nc3c(C(=O)N4C[C@@H](C)O[C@@H](C)C4)cc(Br)cc3[N+](=O)[O-])C[C@@H]2C#N)c1` [Example 391]: the IC50 lay in the range of 50 to 100 nM.

For `CNc1cncc(C(=O)N2C[C@H](Nc3c(C(=O)N4C[C@@H](C)O[C@@H](C)C4)cc(Br)cc3[N+](=O)[O-])C[C@H]2C#Cc2cnn(C)c2)c1` [Example 392], the IC50 fell in the range of 50 to 100 nM. As to `CNc1cncc(C(=O)N2C[C@H](Nc3c(C(=O)N4C[C@@H](C)O[C@@H](C)C4)cc(Br)cc3[N+](=O)[O-])C[C@H]2C(=O)NC2CNC(=O)C2)c1` (stereo partly drawn) [Example 393], the IC50 fell in the range of 50 to 100 nM.

Take `CNc1cncc(C(=O)N2C[C@H](Nc3c(C(=O)N4C[C@@H](C)O[C@@H](C)C4)cc(Br)cc3[N+](=O)[O-])C[C@H]2C(=O)NCCOC)c1` [Example 394]: the IC50 lay within 50 to 100 nM.

Take `CNc1cncc(C(=O)N2C[C@H](Nc3c(C(=O)N4C[C@@H](C)O[C@@H](C)C4)cc(Br)cc3[N+](=O)[O-])C[C@H]2C(=O)NCc2ccncc2)c1` [Example 395]: the IC50 fell in the range of 50 to 100 nM. With `CNc1cncc(C(=O)N2C[C@H](Nc3c(C(=O)N4C[C@@H](C)O[C@@H](C)C4)cc(Br)cc3[N+](=O)[O-])C[C@H]2c2nnco2)c1` [Example 396], the IC50 lay in the range of 50 to 100 nM. For the compound `CNc1cncc(C(=O)N2C[C@H](Nc3c(C(=O)N4C[C@@H](C)O[C@@H](C)C4)cc(Br)cc3[N+](=O)[O-])C[C@H]2C(=O)N[C@@H]2CCNC2=O)c1` [Example 397], the IC50 lay within 50 to 100 nM. `CNc1cncc(C(=O)N2C[C@H](Nc3c(C(=O)N4C[C@@H](C)O[C@@H](C)C4)cc(Br)cc3[N+](=O)[O-])CC[C@H]2C#N)c1` [Example 398]: the IC50 is 10 to 50 nM. Next, `CNc1cncc(C(=O)N2C[C@H](Nc3c(C(=O)N4C[C@@H](C)O[C@@H](C)C4)cc(Br)cc3[N+](=O)[O-])C[C@H]2C(=O)Nc2cc3cn(C)nc3cc2Cl)c1` [Example 399]: 50 to 100 nM; `CNc1cncc(C(=O)N2C[C@H](Nc3c(C(=O)N4C[C@@H](C)O[C@@H](C)C4)cc(Br)cc3[N+](=O)[O-])C[C@H]2C#Cc2cnoc2)c1` [Example 400]: 100 to 200 nM. As to `CNc1cncc(C(=O)N2C[C@H](Nc3c(C(=O)N4C[C@@H](C)O[C@@H](C)C4)cc(Br)cc3[N+](=O)[O-])C[C@H]2C(=O)Nc2cnn(C)c2)c1` [Example 401], the IC50 lay in the range of 50 to 100 nM. For `CNc1cncc(C(=O)N2C[C@H](Nc3c(C(=O)N4C[C@@H](C)O[C@@H](C)C4)cc(Br)cc3[N+](=O)[O-])C[C@H]2C(=O)N[C@H]2CCOC2)c1` [Example 402], the IC50 lay in the range of 50 to 100 nM. Next, `CNc1cncc(C(=O)N2C[C@H](Nc3c(C(=O)N4C[C@@H](C)O[C@@H](C)C4)cc(Br)cc3[N+](=O)[O-])CC[C@@H]2C#N)c1` [Example 403]: 50 to 100 nM; `CNc1cncc(C(=O)N2C[C@H](Nc3c(C(=O)N4C[C@@H](C)O[C@@H](C)C4)cc(Br)cc3[N+](=O)[O-])C[C@H]2C(=O)N[C@H]2CCN(CCOC)C2)c1` [Example 404]: 100 to 200 nM; `CNc1cncc(C(=O)N2C[C@H](Nc3c(C(=O)N4C[C@@H](C)O[C@@H](C)C4)cc(Br)cc3[N+](=O)[O-])[C@@H](OCCOC)C2)c1` [Example 405]: 10 to 50 nM. For the compound `CNc1cnc(F)c(C(=O)N2C[C@H](Nc3c(C(=O)N4C[C@@H](C)O[C@@H](C)C4)cc(Br)cc3[N+](=O)[O-])[C@@H](OC)C2)c1` [Example 406], the IC50 lay within 50 to 100 nM.

For `CNc1cncc(C(=O)N2C[C@H](Nc3c(C(=O)N4C[C@@H](C)O[C@@H](C)C4)cc(Br)cc3[N+](=O)[O-])CC2C(=O)Nc2cc(Cl)n(C)n2)c1` (stereo partly drawn) [Example 407], the IC50 lay within 50 to 100 nM. In the case of `CO[C@H]1CN(C(=O)c2cncc3[nH]cnc23)C[C@@H]1Nc1c(C(=O)N2C[C@@H](C)O[C@@H](C)C2)cc(Br)cc1[N+](=O)[O-]` [Example 408], the IC50 fell in the range of 10 to 50 nM. Consider `CCn1cc(Br)c(NC(=O)[C@@H]2C[C@@H](Nc3c(C(=O)N4C[C@@H](C)O[C@@H](C)C4)cc(Br)cc3[N+](=O)[O-])CN2C(=O)c2cncc(NC)c2)n1` [Example 409], for which the IC50 is 50 to 100 nM.

With `CNc1cncc(C(=O)N2C[C@H](Nc3c(C(=O)N4C[C@@H](C)O[C@@H](C)C4)cc(Br)cc3[N+](=O)[O-])C[C@H]2C(=O)Nc2cn(C)c(=O)cc2Cl)c1` [Example 410], the IC50 lay within 100 to 200 nM. With `CNc1cncc(C(=O)N2C[C@H](Nc3c(C(=O)N4CCCC(F)(F)C4)cc(Br)cc3[N+](=O)[O-])C[C@H]2C(=O)Nc2nn(C)cc2Br)c1` [Example 411], the IC50 fell in the range of 50 to 100 nM. As for `CNc1cncc(C(=O)N2C[C@H](Nc3c(C(=O)N4C[C@@H](C)O[C@@H](C)C4)cc(Br)cc3[N+](=O)[O-])C[C@H]2C(=O)Nc2cn(C)nc2Br)c1` [Example 412], the figure is 50 to 100 nM.

Regarding `CNc1cncc(C(=O)N2C[C@H](Nc3c(C(=O)N4C[C@@H](C)O[C@@H](C)C4)cc(Br)cc3[N+](=O)[O-])C[C@H]2C(=O)NC2CN(CCOC)C2)c1` [Example 413], the IC50 was in the range of 100 to 200 nM. Take `CNc1cncc(C(=O)N2C[C@H](Nc3c(C(=O)N4C[C@@H](C)O[C@@H](C)C4)cc(Br)cc3[N+](=O)[O-])C[C@H]2C#Cc2ccn(C)n2)c1` [Example 414]: the IC50 lay within 100 to 200 nM.

For `CNc1cncc(C(=O)N2C[C@H](Nc3c(C(=O)N4C[C@@H](C)O[C@@H](C)C4)cc(Br)cc3[N+](=O)[O-])C[C@H]2C(=O)Nc2ccnc(F)c2)c1` [Example 415], the IC50 fell in the range of 50 to 100 nM. For the compound `CNc1cncc(C(=O)N2C[C@H](Nc3c(C(=O)N4C[C@@H](C)O[C@@H](C)C4)cc(Br)cc3[N+](=O)[O-])C[C@H]2C(=O)Nc2ccc(C(F)(F)F)nc2)c1` [Example 416], the IC50 lay within 100 to 200 nM. Next, `CNc1cncc(C(=O)N2C[C@H](Nc3c(C(=O)N4C[C@@H](C)O[C@@H](C)C4)cc(Br)cc3[N+](=O)[O-])C[C@H]2C(=O)Nc2nn(CC(F)(F)F)cc2Br)c1` [Example 417]: 50 to 100 nM; `CNc1cncc(C(=O)N2C[C@H](Nc3c(C(=O)N4C[C@@H](C)O[C@@H](C)C4)cc(Br)cc3[N+](=O)[O-])C[C@H]2C(=O)Nc2nn(CCOC)cc2Br)c1` [Example 418, (2S,4R)-4-((4-bromo-2-((2R,6S)-2,6-dimethylmorpholin-4-carbonyl)-6-nitrophenyl)amino)-1-(5-(methylamino)nicotinoyl)-N-(4-bromo-1-(2-methoxyethyl)-1H-pyrazol-3-yl) pyrrolidine-2-formamide]: 50 to 100 nM; `CNc1cncc(C(=O)N2C[C@H](Nc3c(C(=O)N4C[C@@H](C)O[C@@H](C)C4)cc(Br)cc3[N+](=O)[O-])C[C@H]2C(=O)NCc2ccnc(C(F)(F)F)c2)c1` [Example 419]: 50 to 100 nM.

As to `CNc1cncc(C(=O)N2C[C@H](Nc3c(C(=O)N4C[C@@H](C)O[C@@H](C)C4)cc(Br)cc3[N+](=O)[O-])C[C@H]2C(=O)Nc2nn(C3CC3)cc2Br)c1` [Example 420], the IC50 lay within 50 to 100 nM. As for `CNc1cncc(C(=O)N2C[C@H](Nc3c(C(=O)N4C[C@@H](C)O[C@@H](C)C4)cc(Br)cc3[N+](=O)[O-])C[C@H]2C(=O)N[C@@H]2COC(=O)C2)c1` [Example 421], the figure is 100 to 200 nM; as for `CO[C@H]1CN(C(=O)c2cncc3[nH]ccc23)C[C@@H]1Nc1c(C(=O)N2C[C@@H](C)O[C@@H](C)C2)cc(Br)cc1[N+](=O)[O-]` [Example 423], 10 to 50 nM. As for `CNc1cncc(C(=O)N2C[C@H](Nc3c(C(=O)N4C[C@@H](C)O[C@@H](C)C4)cc(Br)cc3[N+](=O)[O-])C[C@H]2C(=O)Nc2nn(-c3cccnc3)cc2Br)c1` [Example 424], the IC50 was 50 to 100 nM.

Consider `CNc1cncc(C(=O)N2C[C@H](Nc3c(C(=O)N4C[C@@H](C)O[C@@H](C)C4)cc(Br)cc3[N+](=O)[O-])C[C@H]2C(=O)Nc2ccc3nn(C)cc3c2Cl)c1` [Example 425], for which the IC50 lay within 100 to 200 nM.

As to `CNc1cncc(C(=O)N2C[C@H](Nc3c(C(=O)N4C[C@@H](C)O[C@@H](C)C4)cc(Br)cc3[N+](=O)[O-])C[C@H]2C(=O)NCc2ccnc(F)c2)c1` [Example 426], the IC50 lay in the range of 100 to 200 nM. `CNc1cncc(C(=O)N2C[C@H](Nc3c(C(=O)N4C[C@@H](C)O[C@@H](C)C4)cc(Br)cc3[N+](=O)[O-])C[C@H]2C(=O)Nc2ccnc(C(F)(F)F)c2)c1` [Example 427, (2S,4R)-4-((4-bromo-2-((2R,6S)-2,6-dimethylmorpholin-4-carbonyl)-6-nitrophenyl)amino)-1-(5-(methylamino)nicotinoyl)-N-(2-(trifluoromethyl)pyridin-4-yl) pyrrolidine-2-formamide]: the IC50 was in the range of 100 to 200 nM. Next, `CNc1cncc(C(=O)N2C[C@H](Nc3c(C(=O)N4C[C@@H](C)O[C@@H](C)C4)cc(Br)cc3[N+](=O)[O-])C[C@H]2C(=O)Nc2ccnc(C(F)(F)F)n2)c1` [Example 428]: 50 to 100 nM; `CNc1cncc(C(=O)N2C[C@H](Nc3c(C(=O)N4C[C@@H](C)O[C@@H](C)C4)cc(Br)cc3[N+](=O)[O-])C[C@H]2C(=O)Nc2cc3nn(C)cc3cc2Cl)c1` [Example 429]: 100 to 200 nM; `CNc1cncc(C(=O)N2C[C@H](Nc3c(C(=O)N4C[C@@H](C)O[C@@H](C)C4)cc(Br)cc3[N+](=O)[O-])C[C@H]2C(=O)NCc2ccnc(NC)c2)c1` [Example 430]: 100 to 200 nM. Next, `CNc1cncc(C(=O)N2C[C@H](Nc3c(C(=O)N4C[C@@H](C)O[C@@H](C)C4)cc(Br)cc3[N+](=O)[O-])C[C@H]2C(=O)NCc2ccnc(C(F)F)c2)c1` [Example 431]: 50 to 100 nM. With `CNc1cncc(C(=O)N2C[C@H](Nc3c(C(=O)N4C[C@@H](C)O[C@@H](C)C4)cc(Br)cc3[N+](=O)[O-])C[C@H]2C(=O)NC2C[C@@H](C)O[C@@H](C)C2)c1` (stereo partly drawn) [Example 433], the IC50 was 100 to 200 nM.
